Earlier results in PubChem BioAssay AID1259409 (Chemical Carcinogenesis Research Information System (CCRIS), 2018).

Test system: rodent chemically induced tumor inhibition, incidence and multiplicity
Test: CCRIS tumor inhibitor studies

Row | Compound | tumour outcome (control, treated, inhibition, significance) (Carcinogen: 7,12-DIMETHYLBENZ[A]ANTHRACENE, 57-97-6, Dose [Inhibitor]: 0.2% IN DRINKING WATER DAILY STARTING 4 WK BEFORE CARCINOGEN TREATMENT AND CONTINUING FOR DURATION OF STUDY (STUDY DURAT, Route [Inhibitor]: ORAL, Species: MOUSE, Strain/Sex: 101/MALE, FEMALE, Target Tissue: Type of Lesion: SKIN: PAPILLOMA, Dose [Carcinogen]: 225 UG IN 0.15 ML ACETONE ONCE, Promoter: CROTON OIL, 8001-28-3) | tumour outcome (control, treated, inhibition, significance) (Carcinogen: BENZO[A]PYRENE, 50-32-8, Dose [Inhibitor]: 2.5 MG 2/WK FOR 20 WK STARTING 4 WK BEFORE START OF CARCINOGEN TREATMENT PLUS 0.2% IN DRINKING WATER (STUDY DURATION: 22, Route [Inhibitor]: SUBCUTANEOUS, ORAL, Species: MOUSE, Strain/Sex: 101/MALE, FEMALE, Target Tissue: Type of Lesion: SKIN: PAPILLOMA, Dose [Carcinogen]: 0.2 ML OF 0.25% 2/WK FOR 20 WK, Promoter: NONE USED) | tumour outcome (control, treated, inhibition, significance) (Carcinogen: BENZO[A]PYRENE, 50-32-8, Dose [Inhibitor]: 2.5 MG 2/WK FOR 20 WK STARTING 4 WK BEFORE START OF CARCINOGEN TREATMENT PLUS 0.2% IN DRINKING WATER (STUDY DURATION: 37, Route [Inhibitor]: SUBCUTANEOUS, ORAL, Species: MOUSE, Strain/Sex: 101/MALE, FEMALE, Target Tissue: Type of Lesion: SKIN: MALIGNANT TUMOR, Dose [Carcinogen]: 0.2 ML OF 0.25% 2/WK FOR 20 WK, Promoter: NONE USED) | tumour outcome (control, treated, inhibition, significance) (Carcinogen: ETHYLNITROSOUREA, 759-73-9, Dose [Inhibitor]: 0, 500 MG/KG MIXED WITH STARCH 1:20 (WEIGHT: WEIGHT) IN DIET 5 D/WK FOR 10 MO (STUDY DURATION: 10 MO), Route [Inhibitor]: ORAL, Species: RAT, Strain/Sex: ALBINO/MALE,FEMALE, Target Tissue: Type of Lesion: BRAIN: GLIOMA OR ASTROCYTOMA, Dose [Carcinogen]: 75 MG/KG IN SALINE BY INTRAVENOUS INJECTION ONCE 21 D AFTER CONCEPTION) | tumour outcome (control, treated, inhibition, significance) (Carcinogen: ETHYLNITROSOUREA, 759-73-9, Dose [Inhibitor]: 0, 500 MG/KG MIXED WITH STARCH 1:20 (WEIGHT: WEIGHT) IN DIET 5 D/WK FOR 10 MO (STUDY DURATION: 10 MO), Route [Inhibitor]: ORAL, Species: RAT, Strain/Sex: ALBINO/MALE,FEMALE, Target Tissue: Type of Lesion: KIDNEY: MESENCHYMAL TUMOR OR ADENOCARCINOMA, Dose [Carcinogen]: 75 MG/KG IN SALINE BY INTRAVENOUS INJECTION ONCE 21 D AFTER CONCEPTION) | tumour outcome (control, treated, inhibition, significance) (Carcinogen: ETHYLNITROSOUREA, 759-73-9, Dose [Inhibitor]: 0, 500 MG/KG MIXED WITH STARCH 1:20 (WEIGHT: WEIGHT) IN DIET 5 D/WK FOR 10 MO (STUDY DURATION: 10 MO), Route [Inhibitor]: ORAL, Species: RAT, Strain/Sex: ALBINO/MALE,FEMALE, Target Tissue: Type of Lesion: NERVOUS SYSTEM: SCHWANNOMA, Dose [Carcinogen]: 75 MG/KG IN SALINE BY INTRAVENOUS INJECTION ONCE 21 D AFTER CONCEPTION) | tumour outcome (control, treated, inhibition, significance) (Carcinogen: ETHYLNITROSOUREA, 759-73-9, Dose [Inhibitor]: 0, 500 MG/KG MIXED WITH STARCH 1:20 (WEIGHT: WEIGHT) IN DIET 5 D/WK FOR 10 MO (STUDY DURATION: 10 MO), Route [Inhibitor]: ORAL, Species: RAT, Strain/Sex: ALBINO/MALE,FEMALE, Target Tissue: Type of Lesion: SPINAL CORD: TUMOR, Dose [Carcinogen]: 75 MG/KG IN SALINE BY INTRAVENOUS INJECTION ONCE 21 D AFTER CONCEPTION) | tumour outcome (control, treated, inhibition, significance) (Carcinogen: AZOXYMETHANE, 25843-45-2, Dose [Inhibitor]: 0, 5 MG/G IN DIET FOR 22 WK BEGINNING 3 D POST LAST CARCINOGEN DOSE (STUDY DURATION: 25 WK), Route [Inhibitor]: ORAL, Species: RAT, Strain/Sex: F344/MALE, Target Tissue: Type of Lesion: DUODENUM: ADENOCARCINOMA, Dose [Carcinogen]: 15 MG/KG BW 2/WK FOR 3 WK, Promoter: NONE USED) | tumour outcome (control, treated, inhibition, significance) (Carcinogen: AZOXYMETHANE, 25843-45-2, Dose [Inhibitor]: 0, 5 MG/G IN DIET FOR 22 WK BEGINNING 3 D POST LAST CARCINOGEN DOSE (STUDY DURATION: 25 WK), Route [Inhibitor]: ORAL, Species: RAT, Strain/Sex: F344/MALE, Target Tissue: Type of Lesion: LARGE BOWEL: ADENOMATOUS POLYP, Dose [Carcinogen]: 15 MG/KG BW 2/WK FOR 3 WK, Promoter: NONE USED)
1 | Cc1ncc(C[n+]2csc(CCO)c2C)c(N)n1 | 17/19 (89%), 18/20 (90%), -1%, not calculated | 13/18 (72%), 5/8 (63%), 13%, not calculated | 12/18 (67%), 5/8 (63%), 6%, not calculated | 21/40 (52%), 14/20 (70%), -35%, not calculated | 11/40 (28%), 10/20 (50%), -79%, not calculated | 19/40 (48%), 5/20 (25%), 48%, not calculated | 17/40 (42%), 4/20 (20%), 52%, not calculated |  | 
2 | CC(C)=CCCC(C)CCO (centres undefined) |  |  |  |  |  |  |  | 50%, 26%, 48%, not significant | 82%, 69%, 16%, not significant
